Source: US10647693B2, “Inhibitors of influenza virus replication, application methods and uses thereof” (SUNSHINE LAKE PHARMA CO., LTD., priority 2016, dated 2020)
pEC50: −log10 of the molar value.

Key:
[1] = SD, rat, in vivo, po, 5 mg/kg
Experimental: (§1) Pharmacokinetic characteristics of the compound of the invention in SD rat were evaluated. The compounds disclosed herein were administered in form of a saline solution containing 5% DMSO, 5% Kolliphor HS 15 and 90% Saline. For intravenous administration (i.v.), the animals were administered with a dose of 1 mg/kg, and blood samples (0.3 mL) were collected at the time points of 0.083, 0.25, 0.5, 1.0, 2.0, 5.0, 7.0 and 24 h after drug administration, then each blood sample was processed to separate plasma by centrifugation at 3000 rpm or 4000 rpm for 10 minutes. For oral administration (p.o.), the animals were administered with a dose of 5 mg/kg, and blood samples (0.3 mL) were collected at the time points of 0.25, 0.5, 1.0, 2.0, 5.0, 7.0 and 24 h after drug administration, then each blood sample was processed to separate plasma by centrifugation at 3000 rpm or 4000 rpm for 10 minutes. Plasma samples were collected and stored at −20° C. or −70° C. until LC/MS/MS analysis.

in vivo = settings: SD, rat
Experimental: as §1

virus H1N1 A/Weiss/43 = assay: microbe, parasite or virus in culture; format: cell-based; settings: Influenza A virus, 120 h; inhibition of CPE caused by A/Weiss/43(H1N1) in MDCK cells, 5 days, CCK-8

N#Cc1c(-c2c[nH]c3c(F)cc(F)cc23)nc(NC2C3CCC(CC3)C2C(=O)O)c(F)c1-c1ccc(C(F)(F)F)cc1 (racemic) [Example 3, (+/−)-trans-3-((5-cyano-6-(5,7-difluoro-1H-indol-3-yl)-3-fluoro-4-(4-trifluoromethylphenyl)pyridin-2-yl)amino)bicyclo[2.2.2]octane-2-carboxylic Acid]
F [1]: 104.6% | AUC(0-inf) (in vivo; iv, 1 mg/kg): 2620 ng·h/mL | AUC(0-t) (in vivo; iv, 1 mg/kg): 2580 ng·h/mL | Cmax (in vivo; iv, 1 mg/kg): 4340 ng/mL | Tmax (in vivo; iv, 1 mg/kg): 0.083 h | Vd (in vivo; iv, 1 mg/kg): 1.98 L/kg | clearance (in vivo; iv, 1 mg/kg): 7.18 mL/min/kg | half-life (in vivo; iv, 1 mg/kg): 1.13 h | AUC(0-inf) (in vivo; po, 5 mg/kg): 13100 ng·h/mL | AUC(0-t) (in vivo; po, 5 mg/kg): 12600 ng·h/mL | Cmax (in vivo; po, 5 mg/kg): 8860 ng/mL | Tmax (in vivo; po, 5 mg/kg): 0.35 h | half-life (in vivo; po, 5 mg/kg): 1.76 h

N#Cc1c(-c2c[nH]c3c(F)cc(F)cc23)nc(NC2C3CCC(CC3)C2C(=O)O)c(F)c1-c1ccco1 (racemic) [Example 1, (+/−)-trans-3-((5-cyano-6-(5,7-difluoro-1H-indol-3-yl)-3-fluoro-4-(furan-2-yl)pyridin-2-yl)amino)bicyclo[2.2.2]octane-2-carboxylic Acid]
pEC50 (virus H1N1 A/Weiss/43): 9.57 | F [1]: 83.9% | AUC(0-inf) (in vivo; iv, 1 mg/kg): 5710 ng·h/mL | AUC(0-t) (in vivo; iv, 1 mg/kg): 5680 ng·h/mL | Cmax (in vivo; iv, 1 mg/kg): 6560 ng/mL | Tmax (in vivo; iv, 1 mg/kg): 0.083 h | Vd (in vivo; iv, 1 mg/kg): 0.231 L/kg | clearance (in vivo; iv, 1 mg/kg): 3.86 mL/min/kg | half-life (in vivo; iv, 1 mg/kg): 1.24 h | AUC(0-inf) (in vivo; po, 5 mg/kg): 21600 ng·h/mL | AUC(0-t) (in vivo; po, 5 mg/kg): 21300 ng·h/mL | Cmax (in vivo; po, 5 mg/kg): 5780 ng/mL | Tmax (in vivo; po, 5 mg/kg): 1.1 h | half-life (in vivo; po, 5 mg/kg): 1.52 h

Cn1ccc2c(NC3C4CCC(CC4)C3C(=O)O)nc(-c3c[nH]c4ncc(F)cc34)cc21 (racemic) [Example 20, (+/−)-trans-3-((6-(5-fluoro-1H-pyrrolo[2,3-b]pyridin-3-yl)-1-methyl-1H-pyrrolo[3,2-c]pyridin-4-yl)amino)bicyclo[2.2.2]octane-2-carboxylic Acid]
pEC50 (virus H1N1 A/Weiss/43): 8.59

N#Cc1c(-c2c[nH]c3c(F)cc(F)cc23)nc(NC2C3CCC(CC3)C2C(=O)O)c(F)c1C1CC1 (racemic) [Example 8, (+/−)-trans-3-((5-cyano-4-cyclopropyl-6-(5,7-difluoro-1H-indol-3-yl)-3-fluoropyridin-2-yl)amino)bicyclo[2.2.2]octane-2-carboxylic Acid]
pEC50 (virus H1N1 A/Weiss/43): 8.29

N#Cc1c(-c2c[nH]c3ncc(F)cc23)nc(NC2C3CCC(CC3)C2C(=O)O)c(F)c1C1CC1 (racemic) [Example 9, (+/−)-trans-3-((5-cyano-4-cyclopropyl-3-fluoro-6-(5-fluoro-1H-pyrrolo[2,3-b]pyridin-3-yl)pyridin-2-yl)amino)bicyclo[2.2.2]octane-2-carboxylic Acid]
pEC50 (virus H1N1 A/Weiss/43): 9.31 | F [1]: 65.2% | AUC(0-inf) (in vivo; iv, 1 mg/kg): 2710 ng·h/mL | AUC(0-t) (in vivo; iv, 1 mg/kg): 2640 ng·h/mL | Cmax (in vivo; iv, 1 mg/kg): 3640 ng/mL | Tmax (in vivo; iv, 1 mg/kg): 0.083 h | Vd (in vivo; iv, 1 mg/kg): 0.551 L/kg | clearance (in vivo; iv, 1 mg/kg): 5.46 mL/min/kg | half-life (in vivo; iv, 1 mg/kg): 2.15 h | AUC(0-inf) (in vivo; po, 5 mg/kg): 8230 ng·h/mL | AUC(0-t) (in vivo; po, 5 mg/kg): 8140 ng·h/mL | Cmax (in vivo; po, 5 mg/kg): 2850 ng/mL | Tmax (in vivo; po, 5 mg/kg): 0.46 h | half-life (in vivo; po, 5 mg/kg): 3.39 h

N#Cc1c(-c2c[nH]c3c(F)cc(F)cc23)nc(NC2C3CCC(CC3)C2C(=O)O)c(F)c1-c1ccccc1 (racemic) [Example 14, (+/−)-trans-3-((5-cyano-6-(5,7-difluoro-1H-indol-3-yl)-3-fluoro-4-phenylpyridin-2-yl)amino)bicyclo[2.2.2]octane-2-carboxylic Acid]
pEC50 (virus H1N1 A/Weiss/43): 7.98 | F [1]: 74.6% | AUC(0-inf) (in vivo; iv, 1 mg/kg): 3520 ng·h/mL | AUC(0-t) (in vivo; iv, 1 mg/kg): 3450 ng·h/mL | Cmax (in vivo; iv, 1 mg/kg): 4130 ng/mL | Tmax (in vivo; iv, 1 mg/kg): 0.083 h | Vd (in vivo; iv, 1 mg/kg): 0.432 L/kg | clearance (in vivo; iv, 1 mg/kg): 5.12 mL/min/kg | half-life (in vivo; iv, 1 mg/kg): 1.31 h | AUC(0-inf) (in vivo; po, 5 mg/kg): 10300 ng·h/mL | AUC(0-t) (in vivo; po, 5 mg/kg): 10100 ng·h/mL | Cmax (in vivo; po, 5 mg/kg): 2980 ng/mL | Tmax (in vivo; po, 5 mg/kg): 1.22 h | half-life (in vivo; po, 5 mg/kg): 1.46 h

Cn1cc(-c2c(F)c(N[C@H]3C4CCC(CC4)[C@@H]3C(=O)O)nc(-c3c[nH]c4c(F)cc(F)cc34)c2C#N)cn1 [Example 12a, (2S,3S)-3-((5-cyano-6-(5,7-difluoro-1H-indol-3-yl)-3-fluoro-4-(1-methyl-1H-pyrazol-4-yl)pyridin-2-yl)amino)bicyclo[2.2.2]octane-2-carboxylic Acid]
pEC50 (virus H1N1 A/Weiss/43): 9.02
